Measurements published in patent US20150051144A1, “COMPOUNDS FOR THE TREATMENT OF DYSLIPIDEMIA AND OTHER DISEASES” (Cadila Healthcare Limited, priority 2012, published 2015).

Molecular target: PCSK9 (Homo sapiens, UniProt Q8NBP7)
Assay: PCSK9-LDLR in vitro Binding Assay (solid phase, ELISA readout)
Conditions: for inhibition at 10 µM: test compound concentration 10 μM; for inhibition at 100 µM: test compound concentration 100 μM
Protocol: The PCSK9-LDLR in vitro Binding Assay is a quantitative solid phase binding assay between PCSK9 and recombinant LDLR. Plates were pre-coated with a recombinant LDLR-AB domain, which binds PCSK9. Test compound at different concentration was added to the PCSK9 and added to LDLR immobilized on the wells. The amount of bound PCSK9 is measured by binding it with biotinylated anti-His-tag monoclonal antibody, followed by binding with horseradish peroxidase conjugated streptavidin substrate. The color was quantified by ELISA reader at […] which reflects the relative amount of PCSK9 that binds to LDLR in presence and absence of the inhibitor.

Sequence of PCSK9 (Q8NBP7 153-692): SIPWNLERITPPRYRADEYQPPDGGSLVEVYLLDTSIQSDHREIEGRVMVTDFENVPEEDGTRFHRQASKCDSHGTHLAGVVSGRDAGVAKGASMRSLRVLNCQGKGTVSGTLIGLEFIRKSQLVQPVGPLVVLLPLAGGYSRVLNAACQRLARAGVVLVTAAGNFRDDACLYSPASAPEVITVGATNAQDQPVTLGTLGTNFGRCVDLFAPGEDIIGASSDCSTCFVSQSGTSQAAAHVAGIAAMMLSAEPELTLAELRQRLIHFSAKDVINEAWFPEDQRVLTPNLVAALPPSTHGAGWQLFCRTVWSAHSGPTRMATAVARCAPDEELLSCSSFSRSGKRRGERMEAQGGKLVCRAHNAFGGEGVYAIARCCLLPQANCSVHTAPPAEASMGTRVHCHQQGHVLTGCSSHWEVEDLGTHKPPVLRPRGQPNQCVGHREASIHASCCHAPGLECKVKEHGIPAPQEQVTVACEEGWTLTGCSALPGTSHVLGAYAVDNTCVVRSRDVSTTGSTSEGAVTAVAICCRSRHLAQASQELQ
Sequence of PCSK9 (Q8NBP7 31-152 partner limits assumed): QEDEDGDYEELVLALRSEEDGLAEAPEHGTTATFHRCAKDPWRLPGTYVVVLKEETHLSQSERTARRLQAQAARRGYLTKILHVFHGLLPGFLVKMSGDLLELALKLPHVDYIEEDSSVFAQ

inhibition at 10 µM [%]	inhibition at 100 µM [%]	Structure (SMILES)
50	51	Cc1cc(C(Cc2ccccc2)=NOCc2ccc(C(F)(F)F)cc2)ccc1OCC(=O)N1CCOCC1 [Example 1, 2-(2-Methyl-4-(2-phenyl-1-(((4-(trifluoromethyl)benzyl)oxy)imino)ethyl)phenoxy)-1-morpholinoethanone]
32	38	Cc1cc(C(Cc2ccccc2)=NOCc2ccc(C(F)(F)F)cc2)ccc1OCC(=O)NCC(=O)N1CCOCC1 [Example 3, 2-(2-Methyl-4-(2-phenyl-1-(((4-(trifluoromethyl)benzyl)oxy)imino)ethyl)phenoxy)-N-(2-morpholino-2-oxoethyl)acetamide]
31	62	O=C(COc1ccc(C(Cc2ccccc2)=NOCc2ccc(C(F)(F)F)cc2)cc1)N1CCOCC1 [Example 4, 1-Morpholino-2-(4-(2-phenyl-1-(((4-(trifluoromethyl)benzyl)oxy)imino)ethyl)phenoxy)ethanone]
50	52	CC(C)(C)OC(=O)N1CCC(ONC(=O)COc2ccc(C(Cc3ccccc3)=NOCc3ccc(C(F)(F)F)cc3)cc2)CC1 [Example 8, tert-Butyl 4-((2-(4-(2-phenyl-1-(((4-(trifluoromethyl)benzyl)oxy)imino)ethyl)phenoxy)acetamido)oxy)piperidine-1-carboxylate]
53	33	O=C(COc1ccc(C(Cc2ccccc2)=NOCc2ccc(C(F)(F)F)cc2)cc1)NN1CCOCC1 [Example 9, N-Morpholino-2-(4-(2-phenyl-1-(((4-(trifluoromethyl)benzyl)oxy)imino)ethyl)phenoxy)acetamide]
21	53	Cc1cc(C(Cc2ccsc2)=NOCc2ccc(C(F)(F)F)cc2)ccc1OCC(=O)N1CCOCC1 [Example 10, 2-(2-Methyl-4-(2-(thiophen-3-yl)-1-(((4-(trifluoromethyl)benzyl)oxy)imino)ethyl)phenoxy)-1-morpholinoethanone]
26	57	CC(=NOCc1ccc(C(F)(F)F)cc1)c1ccc(OCC(=O)N2CCOCC2)cc1 [Example 11, 1-Morpholino-2-(4-(1-(((4-(trifluoromethyl)benzyl)oxy)imino)ethyl)phenoxy)ethanone]
52	54	CCC(=NOCc1ccc(C(F)(F)F)cc1)c1ccc(OCC(=O)N2CCOCC2)cc1 [Example 13, 1-Morpholino-2-(4-(1-(((4-(trifluoromethyl)benzyl)oxy)imino)propyl)phenoxy)ethanone]
32	64	CCC(=NOCc1ccc(C(F)(F)F)cc1)c1ccc(OCC(=O)N2CCCCC2)cc1 [Example 15, 1-(Piperidin-1-yl)-2-(4-(1-(((4-(trifluoromethyl)benzyl)oxy)imino)propyl)phenoxy)ethanone]
20	54	CCC(=NOCc1ccc(C(F)(F)F)cc1)c1ccc(OCC(=O)N(CCO)c2ccccc2)cc1 [Example 20, N-(2-Hydroxyethyl)-N-phenyl-2-(4-(1-(((4-(trifluoromethyl)benzyl)oxy)imino)propyl)phenoxy)acetamide]
35	60	CCC(=NOCc1ccc(C(F)(F)F)cc1)c1ccc(OCC(=O)Nc2cc(C)nn2C)cc1 [Example 22, N-(1,3-Dimethyl-1H-pyrazol-5-yl)-2-(4-(1-(((4-(trifluoromethyl)benzyl)oxy)imino)propyl)phenoxy)acetamide]
27	40	O=C(COc1ccc(C(Cc2ccccc2)=NOCc2ccccc2)cc1)N1CCOCC1 [Example 25, 2-(4-(1-((Benzyloxy)imino)-2-phenylethyl)phenoxy)-1-morpholinoethanone]
32	44	Cc1ccc(CON=C(Cc2ccccc2)c2ccc(OCC(=O)N3CCOCC3)c(C)c2)cc1 [Example 26, 2-(2-Methyl-4-(1-(((4-methylbenzyl)oxy)imino)-2-phenylethyl)phenoxy)-1-morpholinoethanone]
25	46	Cc1cc(C(Cc2ccccc2)=NOCc2ccc(OC(F)(F)F)cc2)ccc1OCC(=O)N1CCOCC1 [Example 34, 2-(2-methyl-4-(2-phenyl-1-(((4-(trifluoromethoxy)benzyl)oxy)imino)ethyl)phenoxy)-1-morpholinoethanone]
26	42	O=C(COc1ccc(C(Cc2ccccc2)=NOCc2ccc(OC(F)(F)F)cc2)cc1)N1CCOCC1 [Example 35, 1-morpholino-2-(4-(2-phenyl-1-(((4-(trifluoromethoxy)benzyl)oxy)imino)ethyl)phenoxy)ethanone]
22	40	COc1ccc(CON=C(Cc2ccccc2)c2ccc(OCC(=O)N3CCOCC3)c(C)c2)cc1 [Example 36, 2-(4-(1-(((4-methoxybenzyl)oxy)imino)-2-phenylethyl)-2-methylphenoxy)-1-morpholinoethanone]
24	50	COc1ccc(CON=C(Cc2ccccc2)c2ccc(OCC(=O)N3CCCCC3)c(C)c2)cc1 [Example 40, 2-(4-(1-(((4-methoxybenzyl)oxy)imino)-2-phenylethyl)-2-methylphenoxy)-1-(piperidin-1-yl)ethanone]
40	62	O=C(COc1ccc2c(c1)CCCC2=NOCc1ccc(C(F)(F)F)cc1)N1CCCCC1 [Example 54, 1-(piperidin-1-yl)-2-((5-(((4-(trifluoromethyl)benzyl)oxy)imino)-5,6,7,8-tetrahydronaphthalen-2-yl)oxy)ethanone]
50	59	O=C(COc1ccc2c(c1)CCCC2=NOCc1ccc(C(F)(F)F)cc1)NN1CCOCC1 [Example 57, N-morpholino-2-((5-(((4-(trifluoromethyl)benzyl)oxy)imino)-5,6,7,8-tetrahydronaphthalen-2-yl)oxy)acetamide]
50	53	O=C(COc1ccc2c(c1)CCCC2=NOCc1ccc(C(F)(F)F)cc1)NN1CCCCC1 [Example 58, N-(piperidin-1-yl)-2-((5-(((4-(trifluoromethyl)benzyl)oxy)imino)-5,6,7,8-tetrahydronaphthalen-2-yl)oxy)acetamide]
49	79	O=C(COc1ccc2c(c1)CCCC2=NOCc1ccc(C(F)(F)F)cc1)Nc1nc2cc(Cl)ccc2o1 [Example 59, N-(5-chlorobenzo[d]oxazol-2-yl)-2-((5-(((4-(trifluoromethyl)benzyl)oxy)imino)-5,6,7,8-tetrahydronaphthalen-2-yl)oxy)acetamide]
61	91	Cc1ccnc(NC(=O)COc2ccc3c(c2)CCCC3=NOCc2ccc(C(F)(F)F)cc2)n1 [Example 60, N-(4-methylpyrimidin-2-yl)-2-((5-(((4-(trifluoromethyl)benzyl)oxy)imino)-5,6,7,8-tetrahydronaphthalen-2-yl)oxy)acetamide]
57	73	CC(C)(C)OC(=O)N1CCC(ONC(=O)COc2ccc3c(c2)CCCC3=NOCc2ccc(C(F)(F)F)cc2)CC1 [Example 62, tert-butyl 4-((2-((5-(((4-(trifluoromethyl)benzyl)oxy)imino)-5,6,7,8-tetrahydronaphthalen-2-yl)oxy)acetamido)oxy)piperidine-1-carboxylate]
48	58	[C-]#[N+]c1ccccc1NC(=O)COc1ccc2c(c1)CCCC2=NOCc1ccc(C(F)(F)F)cc1 [Example 63, N-(2-isocyanophenyl)-2-((5-(((4-(trifluoromethyl)benzyl)oxy)imino)-5,6,7,8-tetrahydronaphthalen-2-yl)oxy)acetamide]

Structure (SMILES)	inhibition at 10 µM [%]	inhibition at 100 µM [%]
CN1CCN(C(=O)COc2ccc(C(Cc3ccccc3)=NOCc3ccc(C(F)(F)F)cc3)cc2)CC1 [Example 6, 1-(4-Methylpiperazin-1-yl)-2-(4-(2-phenyl-1-(((4-(trifluoromethyl)benzyl)oxy)imino)ethyl)phenoxy)ethanone]	49	–
CCC(=NOCCn1ccc2ccccc21)c1ccc(OCC(=O)N2CCN(C)CC2)cc1 [Example 46, 2-(4-(1-((2-(1H-indol-1-yl)ethoxy)imino)propyl)phenoxy)-1-(4-methylpiperazin-1-yl)ethanone]	27	59
CCC(=NOCc1nc(-c2ccccc2)oc1C)c1ccc(OCC(=O)N2CCN(C)CC2)cc1 [Example 50, 2-(4-(1-(((5-methyl-2-phenyloxazol-4-yl)methoxy)imino)propyl)phenoxy)-1-(4-methylpiperazin-1-yl)ethanone]	22	42
CN1CCN(C(=O)COc2ccc3c(c2)CCCC3=NOCc2ccc(C(F)(F)F)cc2)CC1 [Example 56, 1-(4-methylpiperazin-1-yl)-2-((5-(((4-(trifluoromethyl)benzyl)oxy)imino)-5,6,7,8-tetrahydronaphthalen-2-yl)oxy)ethanone]	63	66
